Numbered stars: 1 amine (or outer) side, 2 acyl side, 3 side chain; on linkers, the order of the positions; unused ones are H or OH. Bridge positions count the residues as written; N and C are the ends. Square brackets hold non-standard residues; d marks the D form. Side chains are listed from the residue outwards. Peptide text beside a SMILES is read from it. * marks the point of attachment. γGlu = O=C(O)[C@H](CCC(=O)[*:2])N[*:1]; Palmitoyl = CCCCCCCCCCCCCCCC(=O)*; Myristoyl = CCCCCCCCCCCCCC(=O)*; Lauroyl = CCCCCCCCCCCC(=O)*; Dab = NCC[C@H](N)C(=O)O
Assay: in vivo
Set-up: species or system male CD-1 mice
Settings: for AUC0-∞ dcor. / Cmax dcor.: mouse
Description: 2.7. Pharmacokinetic Study (PK)
Pharmacokinetic study after intravenous (i.v.) and subcutaneous (s.c.) administration was performed for the compounds of Ex. 17, Ex. 20, Ex. 25, Ex. 26, Ex. 28, and Ex. 29. […] The compounds of Ex. 17, Ex. 25, Ex. 26, Ex. 28, and Ex. 29 were administered i.v. and s.c. as a cassette whereas for the compound of Ex. 20a single i.v. and s.c. administration was accomplished.
30 grams (±20%) male CD-1 mice obtained from Janvier, France, were used in the study testing the cassette compounds. The vehicle, phosphate buffered saline containing 5% DMSO, was added to give a final concentration of 0.5 mg/mL of the compounds (i.v. route and s.c. route). The volume was 2 mL/kg i.v. and 10 mL/kg s.c. and the cassette compounds were injected to give a final intravenous dose of 1 mg/kg and an subcutaneous dose of 5 mg/kg. Approximately 500 μL of blood were removed from the opened heart at predetermined time intervals (5, 15, 30 min and 1, 2, 4, 8 and 12 hours for the i.v. study and 5, 15, 30 min and 1, 2, 4, 8, 12 and 24 hours for the s.c. study) and added to heparinized tubes. Plasma was removed from pelleted cells upon centrifugation and frozen at −80° C. prior to HPLC-MS analysis. For the compound of Ex. 20 30 grams (±20%) male CD-1 mice obtained from Charles River Laboratories Deutschland GmbH were used. The vehicle, phosphate buffered saline, was added to give a final concentration of 0.2 mg/mL of the compound (i.v. route) and 1 mg/mL (s.c. route). The volume was 5 mL/kg i.v. and s.c. and the compound was injected to give a final intravenous dose of 1 mg/kg and an subcutaneous dose of 5 mg/kg. Approximately 300-400 μL of blood was removed under light isoflurane anesthesia by cardiac puncture at predetermined time intervals (5, 15, 30 min and 1, 2, 3, 4, 6, 12 hours for the i.v. study and 15, min and 1, 2, 4, 6, 8, 12 and 24 hours for the s.c. study) and added to heparinized tubes. Plasma was removed from pelleted cells upon centrifugation and frozen at −80° C. prior to HPLC-MS analysis.
Preparation of the Plasma Calibration Samples
“Blank” mouse plasma from untreated animals was used. Aliquots of plasma of 0.2 mL each were spiked with 50 ng of propranolol (Internal Standard, IS), (sample preparation by solid phase extraction on OASIS® HLB cartridges [Waters]) and with known amounts of Ex. 20 in order to obtain 9 plasma calibration samples in the range 10-5000 nM. The OASIS® HLB cartridges were conditioned with 1 mL of methanol and then with 1 mL of 1% NH3 in water. Samples were then diluted with 700 μL of 1% NH3 in water and loaded. The plate was washed with 1 mL of methanol/1% NH3 in water 5/95 (v/v). Elution was performed using 1 mL of 0.1% TFA in methanol.
The plate containing eluates was introduced into the concentrator system and taken to dryness. The residues were dissolved in 100 μL of formic acid 0.1%/acetonitrile, 95/5 (v/v) and analysed in the HPLC/MS on a reverse phase analytical column (Jupiter C18, 50×2.0 mm, 5 μm, Phenomenex), using gradient elution (mobile phases A: 0.1% formic acid in water, B: acetonitrile; from 5% B to 100% B in 2 min.).
Preparation of Plasma Samples
Samples coming from animal treatments were pooled in order to obtain an appropriate volume for the extraction. If the total volume obtained was less than 0.2 mL the appropriate amount of “blank” mouse plasma was added in order to keep the matrix identical to the calibration curve. Samples were than spiked with IS and processed as described for the calibration curve.
Pharmacokinetic Evaluation
In order to perform PK analysis pooled plasma data (n=3 mice) was used. PK parameters were calculated by WinNonLin™ software version 5.2.1 (Pharsight—A Certara™ Company, Mountain View, Calif. 94041 USA) using non-compartmental analysis with a linear up/log down trapezoidal calculation method. For the terminal elimination phase at least 3 time points and a correlation coefficient greater than 0.85 was used. […]

Row | Structure (SMILES) | bioavailability (male, CD-1, mouse) | AUC(0-inf) (male, CD-1, mouse, iv, 1 mg/kg) | Cmax (male, CD-1, mouse, iv, 1 mg/kg) | Tmax (male, CD-1, mouse, iv, 1 mg/kg) | half-life (male, CD-1, mouse, iv, 1 mg/kg) | level at 0.083 h (male, CD-1, mouse, iv, 1 mg/kg) | level at 0.25 h (male, CD-1, mouse, iv, 1 mg/kg) | level at 0.5 h (male, CD-1, mouse, iv, 1 mg/kg) | level at 1 h (male, CD-1, mouse, iv, 1 mg/kg) | level at 2 h (male, CD-1, mouse, iv, 1 mg/kg) | level at 4 h (male, CD-1, mouse, iv, 1 mg/kg) | level at 12 h (male, CD-1, mouse, iv, 1 mg/kg) | AUC(0-inf) (male, CD-1, mouse, sc, 5 mg/kg) | Cmax (male, CD-1, mouse, sc, 5 mg/kg) | Tmax (male, CD-1, mouse, sc, 5 mg/kg) | half-life (male, CD-1, mouse, sc, 5 mg/kg) | level at 0.5 h (male, CD-1, mouse, sc, 5 mg/kg) | level at 1 h (male, CD-1, mouse, sc, 5 mg/kg) | level at 2 h (male, CD-1, mouse, sc, 5 mg/kg) | level at 4 h (male, CD-1, mouse, sc, 5 mg/kg) | other results
1 | CCCCCCCCCCCCCC(=O)N[C@@H](CCC(=O)NCCCC[C@@H]1NC(=O)[C@H](Cc2ccc(O)cc2)NC(=O)[C@@H]2CSSC[C@H](NC(=O)[C@H](Cc3ccc(O)cc3)NC(=O)[C@H](Cc3c[nH]cn3)NC(=O)[C@H](Cc3ccc(O)cc3)NC(=O)[C@@H]3CCCN3C(=O)[C@H]3CCCN3C(=O)[C@H](CCCCN)NC1=O)C(=O)N[C@@H](CO)C(=O)N[C@@H](C)C(=O)N1CCC[C@@H]1C(=O)N[C@@H](CCN)C(=O)N[C@@H](CCCNC(=N)N)C(=O)N[C@@H](Cc1ccc(O)cc1)C(=O)N2)C(=O)O [Ex. 28] (cyclo(YHYCSA[dP][Dab]RYCYK([γGlu-Myristoyl])K[dP]P); disulfide 4-11) | 150% | 3430 ng·h/mL | 2820 ng/mL | 0.1 h | 3.2 h | 2820 ng/mL | 2120 ng/mL | 2030 ng/mL | 1670 ng/mL | 114 ng/mL | 148 ng/mL | 17 ng/mL | 25700 ng·h/mL | 1900 ng/mL | 8 h | 4.3 h | 73 ng/mL | 232 ng/mL | 1520 ng/mL | 1270 ng/mL | level at 8 h (male, CD-1, mouse, iv, 1 mg/kg): 34 ng/mL; level at 0.25 h (male, CD-1, mouse, sc, 5 mg/kg): 16 ng/mL; level at 8 h (male, CD-1, mouse, sc, 5 mg/kg): 1900 ng/mL; level at 12 h (male, CD-1, mouse, sc, 5 mg/kg): 1610 ng/mL; level at 24 h (male, CD-1, mouse, sc, 5 mg/kg): 164 ng/mL; AUC0-∞ dcor. (iv, 1 mg/kg): 3430.8 kg·ng·h/mg/mL; Cmax dcor. (iv, 1 mg/kg): 2817.0 kg·ng/mg/mL; AUC0-∞ dcor. (sc, 5 mg/kg): 5137.4 kg·ng·h/mg/mL; Cmax dcor. (sc, 5 mg/kg): 380.0 kg·ng/mg/mL
2 | CCCCCCCCCCCCCCCC(=O)NCCCC[C@@H]1NC(=O)[C@H](Cc2ccc(O)cc2)NC(=O)[C@@H]2CSSC[C@H](NC(=O)[C@H](Cc3ccc(O)cc3)NC(=O)[C@H](Cc3c[nH]cn3)NC(=O)[C@H](Cc3ccc(O)cc3)NC(=O)[C@@H]3CCCN3C(=O)[C@H]3CCCN3C(=O)[C@H](CCCCN)NC1=O)C(=O)N[C@@H](CO)C(=O)N[C@@H](C)C(=O)N1CCC[C@@H]1C(=O)N[C@@H](CCN)C(=O)N[C@@H](CCCNC(=N)N)C(=O)N[C@@H](Cc1ccc(O)cc1)C(=O)N2 [Ex. 20] (cyclo(YHYCSA[dP][Dab]RYCYK(Palmitoyl)K[dP]P); disulfide 4-11) | 139% | 5500 ng·h/mL | 2210 ng/mL | 0.5 h | 2 h | 777 ng/mL | 1520 ng/mL | 2210 ng/mL | 1380 ng/mL | 992 ng/mL | 486 ng/mL | 13 ng/mL | 38200 ng·h/mL | 3040 ng/mL | 12 h | 2.9 h | 70 ng/mL | 342 ng/mL | 868 ng/mL | 1700 ng/mL | level at 3 h (male, CD-1, mouse, iv, 1 mg/kg): 638 ng/mL; level at 6 h (male, CD-1, mouse, iv, 1 mg/kg): 234 ng/mL; level at 6 h (male, CD-1, mouse, sc, 5 mg/kg): 2800 ng/mL; level at 8 h (male, CD-1, mouse, sc, 5 mg/kg): 2860 ng/mL; level at 12 h (male, CD-1, mouse, sc, 5 mg/kg): 3040 ng/mL; level at 24 h (male, CD-1, mouse, sc, 5 mg/kg): 179 ng/mL; AUC0-∞ dcor. (iv, 1 mg/kg): 5504.8 kg·ng·h/mg/mL; Cmax dcor. (iv, 1 mg/kg): 2210.0 kg·ng/mg/mL; AUC0-∞ dcor. (sc, 5 mg/kg): 7630.8 kg·ng·h/mg/mL; Cmax dcor. (sc, 5 mg/kg): 608.7 kg·ng/mg/mL
3 | CCCCCCCCCCCC(=O)N[C@@H](CCC(=O)NCCCC[C@@H]1NC(=O)[C@H](Cc2ccc(O)cc2)NC(=O)[C@@H]2CSSC[C@H](NC(=O)[C@H](Cc3ccc(O)cc3)NC(=O)[C@H](Cc3c[nH]cn3)NC(=O)[C@H](Cc3ccc(O)cc3)NC(=O)[C@@H]3CCCN3C(=O)[C@H]3CCCN3C(=O)[C@H](CCCCN)NC1=O)C(=O)N[C@@H](CO)C(=O)N[C@@H](C)C(=O)N1CCC[C@@H]1C(=O)N[C@@H](CCN)C(=O)N[C@@H](CCCNC(=N)N)C(=O)N[C@@H](Cc1ccc(O)cc1)C(=O)N2)C(=O)O [Ex. 25] (cyclo(YHYCSA[dP][Dab]RYCYK([γGlu-Lauroyl])K[dP]P); disulfide 4-11) | 142% | 3480 ng·h/mL | 2970 ng/mL | 0.1 h | 2.5 h | 2970 ng/mL | 2190 ng/mL | 1990 ng/mL | 1600 ng/mL | 160 ng/mL | 180 ng/mL | 16 ng/mL | 24700 ng·h/mL | 2190 ng/mL | 2 h | 4.7 h | 205 ng/mL | 517 ng/mL | 2190 ng/mL | 1640 ng/mL | level at 8 h (male, CD-1, mouse, iv, 1 mg/kg): 18 ng/mL; level at 0.25 h (male, CD-1, mouse, sc, 5 mg/kg): 44 ng/mL; level at 8 h (male, CD-1, mouse, sc, 5 mg/kg): 1890 ng/mL; level at 12 h (male, CD-1, mouse, sc, 5 mg/kg): 1210 ng/mL; level at 24 h (male, CD-1, mouse, sc, 5 mg/kg): 108 ng/mL; AUC0-∞ dcor. (iv, 1 mg/kg): 3480.0 kg·ng·h/mg/mL; Cmax dcor. (iv, 1 mg/kg): 2970.0 kg·ng/mg/mL; AUC0-∞ dcor. (sc, 5 mg/kg): 4944.7 kg·ng·h/mg/mL; Cmax dcor. (sc, 5 mg/kg): 437.4 kg·ng/mg/mL
4 | CCCCCCCCCCCC(=O)NCCCC[C@@H]1NC(=O)[C@H](Cc2ccc(O)cc2)NC(=O)[C@@H]2CSSC[C@H](NC(=O)[C@H](C)NC(=O)[C@H](Cc3c[nH]cn3)NC(=O)[C@H](Cc3ccc(O)cc3)NC(=O)[C@@H]3CCCN3C(=O)[C@H]3CCCN3C(=O)[C@H](CCCCN)NC1=O)C(=O)N[C@@H](CCCNC(=N)N)C(=O)N[C@@H](C)C(=O)N1CCC[C@@H]1C(=O)N[C@@H](CCN)C(=O)N[C@@H](CCCNC(=N)N)C(=O)N[C@@H](Cc1ccc(O)cc1)C(=O)N2 [Ex. 17] (cyclo(YHACRA[dP][Dab]RYCYK(Lauroyl)K[dP]P); disulfide 4-11) | 114% | 2950 ng·h/mL | 2640 ng/mL | 0.1 h | 2 h | 2640 ng/mL | 2030 ng/mL | 1560 ng/mL | 1290 ng/mL | 178 ng/mL | 141 ng/mL | 8 ng/mL | 16800 ng·h/mL | 1750 ng/mL | 2 h | 4.3 h | 450 ng/mL | 874 ng/mL | 1750 ng/mL | 1410 ng/mL | level at 8 h (male, CD-1, mouse, iv, 1 mg/kg): 15 ng/mL; level at 0.25 h (male, CD-1, mouse, sc, 5 mg/kg): 140 ng/mL; level at 8 h (male, CD-1, mouse, sc, 5 mg/kg): 1240 ng/mL; level at 12 h (male, CD-1, mouse, sc, 5 mg/kg): 567 ng/mL; level at 24 h (male, CD-1, mouse, sc, 5 mg/kg): 65 ng/mL; AUC0-∞ dcor. (iv, 1 mg/kg): 2950.8 kg·ng·h/mg/mL; Cmax dcor. (iv, 1 mg/kg): 2640.0 kg·ng/mg/mL; AUC0-∞ dcor. (sc, 5 mg/kg): 3357.9 kg·ng·h/mg/mL; Cmax dcor. (sc, 5 mg/kg): 350.6 kg·ng/mg/mL

From patent US8716242B2, “β-hairpin peptidomimetics” (priority 2009, dated 2014)
